Source: patent US7718677B2, “Methods and compositions for reduction of side effects of therapeutic treatments” (priority 2007, dated 2010)
“And” between values parts separate entries of the source, which are not always exact repeats. Equal entries are not always repeated.

Legend:
[1] = tested on: MPTP-lesioned squirrel monkeys; experiment: Parkinsonism rating on or off levodopa in MPTP-lesioned monkeys; assay type: in vivo, Saimiri sciureus; conditions: for Parkinson Ratings Expt 1 / Parkinson Ratings Expt 2 (crossover): individual animals, scale 0-28; for Parkinson Ratings Mean ± SE (n): n=5
Procedure: 1-Methyl-4-phenyl-1,2,3,6-tetrahydropyridine (MPTP) administration: Prior to lesioning, the animals were allowed to acclimate to the colony and rated for parkinsonism as described (Langston et al. Ann Neurol. 2000; 47:S79-89). All values were within the normal range. The monkeys were then injected subcutaneously with 2.0 mg/kg MPTP (Sigma, St-Louis, Mo.) dissolved in saline. The animals were rated for parkinsonism 3-4 weeks after MPTP administration. The disability scores ranged from 0 (normal) to 28 for a severely parkinsonian animal. Animals were assessed for 1) spatial hypokinesia (reduction in use of the available cage space), 2) body bradykinesia (increased slowness in body movement), 3) left and 4) right manual dexterity, 5) balance, 6) freezing and 7) action tremor. If they were not parkinsonian, MPTP injection (1.0-2.0 mg/kg) was repeated from 2-5 times for total doses of 3.5 to 13.5 mg/kg. Despite multiple MPTP dosing, two of the animals were not stably parkinsonian.
(§1) Data analyses: The levodopa treatment protocol used in the present study involved a 5-day-on/2-day-off schedule. Parkinsonian ratings were done on Monday and Friday of each week, with the score averaged over the two days. Dyskinesias ratings were determined by averaging the scores on Wednesday and Thursday of each week. All values are expressed as the mean±SE of the indicated number of animals. Results were compared using paired t-tests or analysis of variance (ANOVA) followed by Bonferroni multiple comparison post hoc test, using Prism® program (GraphPad Software, Inc, San Diego, Calif.). A level of 0.05 was considered significant.
White bars indicate no nicotine treatment and black bars indicate nicotine treatment. Parkinsonism was evaluated immediately before the afternoon L-dopa dose and 1.5 to 2 hours after L-dopa treatment, when a maximal antiparkinsonian effect is anticipated. Two of the seven animals in the study were not parkinsonian, and therefore were not included in this analysis. Error bars are the means±standard error of five animals before and after crossover of nicotine treatment. **p<0.01, as compared with the same group with no L-dopa treatment by a Mann-Withney test.

[2] = tested on: corticostriatal slices from nonhuman primates; conditions: nicotine treatment
Description: Brain slices at the level of the globus pallidus have generally been used as they incorporate many of the structures present in basal ganglia motor circuits. This includes glutamatergic inputs from the cortex that densely innervate striatal medium spiny GABAergic neurons and are a determinant of neuronal activity in striatal projection neurons. Synaptic plasticity, defined as long-lasting changes in the efficacy of synaptic transmission, has been identified in corticostriatal slices in vitro in the form of long-term potentiation (LTP), long-term depression (LTD) and depotentiation. In slices from unlesioned rats, high-frequency stimulation (HFS) of glutamatergic corticostriatal afferent fibers can induce both LTD and LTP in striatal medium spiny neurons, most likely due to a release of striatal glutamate which triggers dopamine release. Stimulation of both D1 and D2 receptors is required for the induction of LTD, whereas these two receptor subtypes play opposing roles in LTP.

[3] = tested on: 6-hydroxydopamine-lesioned rats; conditions: ROTOMAX, AccuScan System; n=9; saccharin group 8.2+3.7, no difference
Procedure: Behavioral assessment of the lesion. As an index of nigrostriatal damage, the rats were tested for rotational behavior 3 and 4 weeks after lesioning. This was done using an automated behavioral measurement apparatus that has four cylindrical chambers (50 cm height×34 cm diameter) (ROTOMAX, AccuScan Instruments Inc. Columbus, Ohio, USA). A rat was placed in one of the chambers for 30 min for acclimatization, after which time amphetamine (4 mg/kg ip) was administered as previously described (Visanji et al., 2006, Neuropharmacology 51:506-516). […] The rats were tested a second time one week later and the data from the two testing periods pooled.

[4] = nicotine in Gatorade up to 650 μg/ml
Procedure: Nicotine treatment: All monkeys (n=7) were then given a drinking solution for 3 weeks consisting of commercially available orange Gatorade® to mask nicotine's bitter taste (FIG. 1). The control group (n=4) was continued on Gatorade® only, while nicotine (free base) was added to the Gatorade of the treated group (n=3). Nicotine dosing was started at 50 μg/ml for 1 week, 150 μg/ml for 1 week, with the concentration increased by 150 μg increments/week over the next few weeks, up to 650 μg/ml (FIG. 1).

levodopa-primed monkeys = tested on: levodopa-primed monkeys
Procedure: Levodopa administration: Monkeys were administered levodopa/carbidopa (5 mg/kg and 1.25 mg/kg, respectively), prepared by crushing a tablet of Sinemet® CR 100/25 (DuPont Pharma) and dissolving it in water. This dose of levodopa is within the range of that prescribed to Parkinson's disease patients. The monkeys were gavaged twice daily at 3.5-hour intervals for 8 weeks at a time using a 5-day-on/2-day-off schedule (Hsu et al., J Pharmacol Exp Ther. 2004; 311:770-777). During levodopa treatment, the monkeys were given fruits in the morning and food pellets 3.5 hours after the afternoon levodopa dose to optimize gastrointestinal absorption.
Dyskinesias were rated from videotapes, as described (Hsu et al., J Pharmacol Exp Ther. 2004; 311:770-777). This included a one hour baseline period (no drugs) from ˜8:00-9:00 AM, followed by two 3.5-hour treatment periods with levodopa starting at ˜9:00 AM and ˜12:30 PM. Dyskinesias were rated for 2-minute periods at 30-minute intervals by two independent raters blinded to treatment. They were rated on a scale of 0 (no dyskinesias) to 4; a score of 1 was indicative of subtle dyskinesias that were not sustained; 2, mild dyskinesias that were sustained; 3, moderate dyskinesias that impaired the ability to remain stationary; 4, severe dyskinesias that were generalized and incapacitating.
as §1
Materials and methods were the same as in example 1.
A crossover study, was then conducted, in which the animals originally receiving nicotine were given vehicle (n=3), while the vehicle-treated animals were now administered nicotine (n=4). Levodopa treatment was stopped. […] Monkeys that had previously received nicotine were placed on vehicle drinking water for the same time period. All monkeys were then treated with levodopa (5 mg/kg, twice daily 3.5 hours apart) for a subsequent 8-week period. Since both groups of monkeys had previously received levodopa, they were termed levodopa-primed.

[5] = on levodopa treatment, 1.5-2 hours after dosing

## CN1CCCC1c1cccnc1 (stereo not drawn) [Nicotine, S-3-(1-methyl-2-pyrrolidinyl)pyridine]
[1]; no levodopa treatment
  Parkinson Ratings Expt 1: 5.2 and 6.6
  Parkinson Ratings Expt 2 (crossover): 4.1 and 6.4 and 5.9
  Parkinson Ratings Mean ± SE (n): 5.6 ± 0.5 (5)
[1]; [5]
  Parkinson Ratings Expt 1: 1.7 and 1.5
  Parkinson Ratings Expt 2 (crossover): 0.8 (2×) and 0.4
  Parkinson Ratings Mean ± SE (n): 1.0 ± 0.2 (5)
[1]; on or off levodopa treatment
  effect on parkinsonism: did not affect
[2]
  long-term depression (LTD) lost as a result of nigrostriatal damage: restores
[3]
  extent of turning: 8.4+6.7
[4]
  effects on body weight or fluid intake: no significant effects
levodopa-primed monkeys; animals removed from nicotine treatment, week 4, 6 and 8 of levodopa treatment
  total dyskinetic scores after removal of nicotine: significantly enhanced
levodopa-primed monkeys; levodopa-primed monkeys
  reduction of dyskinesias: ~35%
levodopa-primed monkeys; levodopa-primed monkeys switched to nicotine
  duration of dyskinesias: decrease
levodopa-primed monkeys; levodopa-primed monkeys switched to nicotine, last 4 weeks of levodopa treatment
  peak dyskinesias: significantly reduced
levodopa-primed monkeys; levodopa-primed monkeys switched to nicotine, vs same animal before crossover, all time points, paired t-tests
  total dyskinesias: significantly reduced
